Assay results taken from ChEMBL document CHEMBL1151331, “New cyclic peptides from the ascidian Lissoclinum patella” (J Nat Prod, 1998).

How the values were obtained:
[1] = Cytotoxicity against human multi drug-resistant CEM/VBL100 cells in presence of vinblastine; assay type: functional, cell-based
[2] = Cytotoxicity against human multi drug-resistant CEM/VBL100 cells; assay type: functional, cell-based

CC[C@H](C)[C@@H]1NC(=O)c2csc(n2)[C@@H](C(C)C)NC(=O)[C@H]2N=C(O[C@@H]2C)[C@H]([C@@H](C)CC)NC(=O)c2csc(n2)[C@@H](C(C)C)NC(=O)[C@@H]2COC1=N2 [PATELLAMIDE A] showed an IC50 [1] of 90 nM.
Work on CC[C@H](C)[C@@H]1NC(=O)c2csc(n2)[C@@H](C)NC(=O)[C@H]2N=C(O[C@@H]2C)[C@H](CC(C)C)NC(=O)c2csc(n2)[C@@H](Cc2ccccc2)NC(=O)[C@H]2N=C1O[C@@H]2C [PATELLAMIDE B] yielded an IC50 [1] of 12 nM.
In the case of CC[C@H](C)[C@@H]1NC(=O)c2csc(n2)[C@@H](C)NC(=O)[C@H]2N=C(O[C@@H]2C)[C@H](C(C)C)NC(=O)c2csc(n2)[C@@H](Cc2ccccc2)NC(=O)[C@H]2N=C1O[C@@H]2C [PATELLAMIDE C], the IC50 [1] is reported as 12 nM.
In the case of CC[C@H](C)[C@@H]1NC(=O)c2csc(n2)[C@@H](Cc2ccccc2)NC(=O)[C@H]2N=C(O[C@@H]2C)[C@H](CC(C)C)NC(=O)c2csc(n2)[C@@H](C)NC(=O)[C@H]([C@H](C)O)NC1=O [PATELLAMIDE G], the IC50 [1] is reported as 60 nM.
Compound CC(C)C[C@H]1NC(=O)[C@H]([C@H](C)O)NC(=O)[C@H]2CSSC[C@@H](NC(=O)c3csc1n3)C(=O)N[C@@H]([C@H](C)O)C(=O)N[C@H](Cc1ccccc1)c1nc(cs1)C(=O)N2 [ULITHIACYCLAMIDE E] has an IC50 [1] of 112 nM.
CC(C)C[C@H]1NC(=O)[C@H]([C@H](C)O)NC(=O)[C@H]2CSSC[C@@H](NC(=O)c3csc1n3)C1=N[C@H](C(=O)N[C@H](Cc3ccccc3)c3nc(cs3)C(=O)N2)[C@@H](C)O1 [ULITHIACYCLAMIDE F] gave an IC50 [1] of 44 nM.
Work on CC(C)C[C@H]1NC(=O)[C@H]2N=C(O[C@@H]2C)[C@H]2CSSC[C@@H](NC(=O)c3csc1n3)C(=O)N[C@@H]([C@H](C)O)C(=O)N[C@H](Cc1ccccc1)c1nc(cs1)C(=O)N2 [ULITHIACYCLAMIDE G] yielded an IC50 [1] of 90 nM.
For CC[C@]1(O)C[C@@H]2CN(CCc3c([nH]c4ccccc34)[C@@](C(=O)OC)(c3cc4c(cc3OC)N(C)[C@H]3[C@@](O)(C(=O)OC)[C@H](OC(C)=O)[C@]5(CC)C=CCN6CC[C@]43[C@@H]65)C2)C1 [VINBLASTINE], the IC50 [2] was 90 nM.
